Source: the CheMixHub drug solubility set

Test: xn = mol fraction of the nth substance listed, in the solute-free solvent

O=[N+]([O-])c1cc[nH]n1 + CO + O
solubility (g/100 g solution)
Conditions | 283.15 K | 288.15 K | 293.15 K | 298.15 K | 303.15 K | 308.15 K | 313.15 K | 318.15 K | 323.15 K
x2 = 0.05881 | 0.466 | 0.609 | 0.793 | 1.01 | 1.33 | 1.69 | 2.27 | 2.94 | 3.85
x2 = 0.1233 | 0.564 | 0.712 | 0.875 | 1.08 | 1.38 | 1.73 | 2.29 | 2.92 | 3.79
x2 = 0.1942 | 0.925 | 1.17 | 1.41 | 1.73 | 2.13 | 2.68 | 3.46 | 4.36 | 5.66
x2 = 0.2727 | 1.15 | 1.42 | 1.77 | 2.15 | 2.73 | 3.42 | 4.48 | 5.7 | 7.33
x2 = 0.3599 | 1.39 | 1.69 | 2.12 | 2.57 | 3.22 | 4.01 | 5 | 6.42 | 8.34
x2 = 0.4576 | 1.45 | 1.83 | 2.28 | 2.77 | 3.46 | 4.3 | 5.39 | 6.94 | 8.92
x2 = 0.5675 | 1.51 | 1.85 | 2.27 | 2.8 | 3.45 | 4.33 | 5.46 | 6.85 | 8.68
x2 = 0.6923 | 1.5 | 1.84 | 2.25 | 2.74 | 3.41 | 4.19 | 5.28 | 6.7 | 8.39
x2 = 0.835 | 1.44 | 1.82 | 2.25 | 2.79 | 3.66 | 4.99 | 6.1 | 7.64 | 9.23

O=[N+]([O-])c1cc[nH]n1 + CCCO + O
solubility (g/100 g solution)
Conditions | 283.15 K | 288.15 K | 293.15 K | 298.15 K | 303.15 K | 308.15 K | 313.15 K | 318.15 K | 323.15 K
x2 = 0.03225 | 0.274 | 0.349 | 0.477 | 0.616 | 0.783 | 1.04 | 1.33 | 1.86 | 2.35
x2 = 0.06974 | 0.307 | 0.377 | 0.489 | – | 0.772 | 1.01 | 1.29 | 1.68 | 2.18
x2 = 0.1139 | 0.626 | 0.769 | 0.945 | 1.16 | 1.45 | 1.78 | 2.31 | 2.95 | 3.78
x2 = 0.1666 | 0.964 | 1.19 | 1.43 | 1.76 | 2.13 | 2.64 | 3.29 | 4.2 | 5.32
x2 = 0.2307 | 1.35 | 1.63 | 1.97 | 2.36 | 2.87 | 3.48 | 4.23 | 5.37 | 6.75
x2 = 0.3103 | 1.73 | 2.03 | 2.41 | 2.87 | 3.44 | 4.09 | 4.96 | 6.34 | 7.73
x2 = 0.4117 | 2.08 | 2.44 | 2.82 | 3.32 | 3.87 | 4.69 | 5.64 | 6.61 | 8.31
x2 = 0.5454 | 2.49 | 2.85 | 3.25 | 3.76 | 4.35 | 5.08 | 6.07 | 7.31 | 8.56
x2 = 0.7297 | 2.69 | 3.11 | 3.53 | 4 | 4.54 | 5.23 | 6.03 | 7.19 | 8.45

CCCCN1CCCCC1C(=O)Nc1c(C)cccc1C.Cl.O (stereo not drawn) + CO + O
solubility (g/100 g solution)
Conditions | 293.15 K | 298.15 K | 303.15 K | 308.15 K | 313.15 K | 318.15 K | 323.15 K | 328.15 K | 333.15 K
x2 = 0.1 | 2.92 | 3.74 | 5.36 | 6.77 | 8.14 | 9.76 | 11.3 | 13.1 | 14.9
x2 = 0.2 | 3.04 | 4.11 | 5.31 | 7.06 | 9.3 | 11.4 | 14.1 | 15.8 | 19.5
x2 = 0.3 | 3.57 | 4.29 | 5.13 | 7.32 | 10.9 | 14.7 | 19.7 | 25.1 | 30.3
x2 = 0.4 | 3.64 | 4.18 | 5.89 | 7.92 | 11.9 | 17.4 | 22.3 | 28 | 33.2
x2 = 0.5 | 4.08 | 4.96 | 6.91 | 9.37 | 13.3 | 18.7 | 23.4 | 28.9 | 35.2
x2 = 0.6 | 5.88 | 6.91 | 8.26 | 10.9 | 14.8 | 19.1 | 23.4 | 29.8 | 35.8
x2 = 0.7 | 7.34 | 8.09 | 9.74 | 12.7 | 16.6 | 19.9 | 23.5 | 30.3 | 36.2
x2 = 0.8 | 8.13 | 9.32 | 12 | 14.3 | 17.3 | 20.6 | 24.5 | 30.2 | –
x2 = 0.9 | 8.65 | 10.1 | 13 | 16 | 18.9 | 21.6 | 25.4 | 30.3 | –

Cc1nc(CCl)nc2ccccc12 + CCOC(C)=O + C1CCCCC1
solubility (g/100 g solution)
Conditions | x2 = 0.163 | x2 = 0.321 | x2 = 0.475 | x2 = 0.624 | x2 = 0.768 | x2 = 0.909
281.15 K | 0.0748 | 0.106 | 0.134 | 0.162 | 0.187 | 0.212
286.15 K | 0.102 | 0.139 | 0.176 | 0.21 | 0.244 | 0.276
291.15 K | 0.134 | 0.18 | 0.225 | 0.27 | 0.312 | 0.352
296.15 K | 0.172 | 0.229 | 0.285 | 0.339 | 0.392 | 0.439
301.15 K | 0.22 | 0.29 | 0.357 | 0.42 | 0.481 | 0.539
306.15 K | 0.276 | 0.357 | 0.437 | 0.511 | 0.582 | 0.65
311.15 K | 0.342 | 0.435 | 0.526 | 0.61 | 0.692 | 0.772
316.15 K | 0.418 | 0.523 | 0.623 | 0.718 | 0.81 | 0.898
321.15 K | 0.504 | 0.619 | 0.727 | 0.833 | 0.934 | 1.03
326.15 K | 0.599 | 0.721 | 0.84 | 0.951 | 1.06 | 1.16
331.15 K | 0.704 | 0.833 | 0.955 | 1.07 | 1.19 | 1.3

O=C(CC(=O)c1ccccc1)c1ccccc1 + CCO + O
solubility (g/100 g solution)
Conditions | 278.15 K | 283.15 K | 288.15 K | 293.15 K | 298.15 K | 303.15 K | 308.15 K | 313.15 K | 318.15 K
x2 = 0.2 | 0.0116 | 0.0406 | 0.0595 | 0.069 | 0.0786 | 0.0881 | 0.0946 | 0.177 | 0.129
x2 = 0.4 | 0.2 | 0.505 | 0.754 | 0.88 | 1.09 | 1.28 | 1.97 | 2.5 | 2.96
x2 = 0.6 | 0.577 | 0.706 | 0.904 | 1.13 | 1.47 | 2 | 2.12 | 2.61 | 3.89
x2 = 0.8 | 1.25 | 2.11 | 1.75 | 2.39 | 3.08 | 3.46 | 4.26 | 6.03 | 8.9

O=C(CC(=O)c1ccccc1)c1ccccc1 + CO + O
solubility (g/100 g solution)
Conditions | 278.15 K | 283.15 K | 288.15 K | 293.15 K | 298.15 K | 303.15 K | 308.15 K | 313.15 K | 318.15 K
x2 = 0.2 | 0.0215 | 0.0248 | 0.0305 | 0.0358 | 0.0488 | 0.0621 | 0.0667 | 0.0775 | 0.0881
x2 = 0.4 | 0.0257 | 0.0323 | 0.039 | 0.0541 | 0.0826 | 0.13 | 0.162 | 0.236 | 0.322
x2 = 0.6 | 0.165 | 0.351 | 0.562 | 0.643 | 0.783 | 0.822 | 0.987 | 1.02 | 1.05
x2 = 0.8 | 0.491 | 0.788 | 1.01 | 1.11 | 1.35 | 1.7 | 1.98 | 2.52 | 2.72

CN1CCN(C(=O)OC2c3nccnc3C(=O)N2c2ccc(Cl)cn2)CC1 (stereo not drawn) + C1CCOC1 + O
solubility (g/100 g solution)
Conditions | x2 = 0.3 | x2 = 0.4 | x2 = 0.5 | x2 = 0.6 | x2 = 0.7 | x2 = 0.8 | x2 = 0.9
288.15 K | 0.41 | 0.79 | 1.33 | 2.06 | 2.8 | 3.32 | 3.83
298.15 K | 0.626 | 1.14 | 1.83 | 2.66 | 3.57 | 4.41 | 4.87
308.15 K | 0.91 | 1.54 | 2.43 | 3.54 | 4.53 | 5.71 | 6.18
318.15 K | 1.13 | 2 | 3.21 | 4.68 | 6.19 | 7.53 | 8.07
328.15 K | 1.47 | 2.59 | 4.15 | 6.16 | 8.4 | 9.55 | 9.98

O=c1ccc2ccccc2o1 + CCO + O
solubility (g/100 g solution)
Conditions | 278.15 K | 283.15 K | 288.15 K | 293.15 K | 298.15 K | 303.15 K | 308.15 K | 313.15 K | 318.15 K
x2 = 0.1429 | 0.201 | 0.363 | 0.646 | 1.12 | 1.9 | 3.1 | 4.94 | 7.56 | 12.1
x2 = 0.2857 | 0.809 | 1.49 | 2.82 | 4.84 | 8.59 | 14.1 | 23.6 | 36.2 | 52.4
x2 = 0.4286 | 2.35 | 4.02 | 6.77 | 10.7 | 17.5 | 25.7 | 37.2 | 51.5 | 65.7
x2 = 0.5714 | 3.44 | 5.45 | 9.19 | 13.8 | 21.1 | 30.1 | 41.7 | 56 | 70
x2 = 0.7143 | 3.65 | 5.85 | 9.47 | 14.4 | 21 | 30.5 | 40.9 | 54.9 | 68.7
x2 = 0.8571 | 3.18 | 5.14 | 8.31 | 12.7 | 19.3 | 28.4 | 38.2 | 51.8 | 66.4

CS(=O)(=O)c1ccc(C(O)C(CF)NC(=O)C(Cl)Cl)cc1 (stereo not drawn) + CCO + O
solubility (g/100 g solution)
Conditions | 278.15 K | 283.15 K | 288.15 K | 293.15 K | 298.15 K | 303.15 K | 308.15 K | 313.15 K | 318.15 K
x2 = 0.04165 | 0.113 | 0.15 | 0.202 | 0.267 | 0.34 | 0.453 | 0.569 | 0.728 | 0.926
x2 = 0.08908 | 0.225 | 0.295 | 0.39 | 0.507 | 0.655 | 0.841 | 1.06 | 1.33 | 1.64
x2 = 0.1436 | 0.376 | 0.498 | 0.639 | 0.817 | 1.03 | 1.29 | 1.6 | 1.99 | 2.41
x2 = 0.2068 | 0.536 | 0.699 | 0.887 | 1.13 | 1.42 | 1.76 | 2.15 | 2.65 | 3.18
x2 = 0.2812 | 0.663 | 0.857 | 1.08 | 1.38 | 1.72 | 2.13 | 2.59 | 3.18 | 3.85
x2 = 0.3698 | 0.77 | 0.998 | 1.27 | 1.6 | 2.01 | 2.48 | 3.02 | 3.69 | 4.43
x2 = 0.4772 | 0.869 | 1.11 | 1.43 | 1.79 | 2.22 | 2.75 | 3.35 | 4.05 | 4.88
x2 = 0.6101 | 0.959 | 1.22 | 1.55 | 1.94 | 2.42 | 2.98 | 3.59 | 4.37 | 5.21
x2 = 0.7788 | 1.01 | 1.3 | 1.62 | 2.05 | 2.53 | 3.08 | 3.75 | 4.55 | 5.42
